Read-outs that look alike come from different tables or passages of the source.
Target: T1, phi29 DNA packaging motor (Bacillus phage phi29, UniProt P11014)
T1 construct: made in house
Format: biochemical, bacteriophage phi29
Conditions: for inhibition effect in viral assembly: adding 20% of the drugged/mutant component to the wild-type component
Procedure: (§1) Purified components were subjected to in vitro viral assembly assay as described previously. Briefly, 10 μg of purified procapsids were mixed with 100 ng of pRNA in 5 μl of reaction buffer (10 mM ATP, 6 mM 2-mercaptoethanol, and 3 mM spermidine in TMS buffer) at room temperature for 30 min. Purified DNA-gp3 and gp16 were then added and the reaction mixture was incubated at room temperature for one hour to initiate DNA packaging. Finally, the DNA filled procapsids were incubated with 10 μl of gp8.5-9 extract from E. coli containing plasmid pARgp8.5-9 and 20 μl of gp11-14 extract from E. coli to complete the infectious phage assembly.
The newly assembled infectious viruses were plated with inoculated B. subtilis bacteria Su^+44 cells onto a half LB plate covered with top agar. After 12 hour incubation at 37° C., the viral assembly efficiency (plaque-forming unit, PFU) was calculated by counting the formed plaque numbers.
as §1

T1 sequence (P11014 whole entry): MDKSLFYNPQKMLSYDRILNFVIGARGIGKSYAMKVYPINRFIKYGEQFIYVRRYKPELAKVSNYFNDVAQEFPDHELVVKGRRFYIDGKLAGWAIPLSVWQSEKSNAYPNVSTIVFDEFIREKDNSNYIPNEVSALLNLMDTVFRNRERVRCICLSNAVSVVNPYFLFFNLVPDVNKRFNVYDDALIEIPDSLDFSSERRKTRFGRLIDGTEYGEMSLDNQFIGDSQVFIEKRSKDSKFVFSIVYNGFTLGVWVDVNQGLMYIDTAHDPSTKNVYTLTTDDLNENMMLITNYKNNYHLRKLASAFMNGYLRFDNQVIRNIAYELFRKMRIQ

Nc1ncnc2c1ncn2[C@@H]1O[C@H](COP(=O)(O)OP(=O)(O)OP(O)(O)=S)[C@@H](O)[C@H]1O [γ-S-ATP]
inhibition effect in viral assembly: almost completely inhibited | inhibition effect in viral assembly (listed as gamma-s-ATP): nearly completely inhibited | comparison of virus assembly inhibition effect between drugged components (targets ATP, pRNA, ATPase gp16, DNA with stoichiometry 10000, 6, 6, 1): strongest inhibition effect

— patent publication US10975412B2, “Method for designing compounds and compositions useful for targeting high stoichiometric complexes to treat conditions, including treatment of viruses, bacteria, and cancers having acquired drug resistance” (priority 2015, dated 2021)
